# Test results taken from patent publication US20050042213A1, “Methods and pharmaceutical compositions for modulating heparanase activation and uses thereof” (InSight Biopharmaceuticals Ltd., priority 2003, published 2005).
# Where two headings read alike, the source gives them in different places. Where a SMILES comes first, the peptide text is derived from it. Where no end group is shown, it is not given here. [ ]: non-standard residue; d: D form. The star is where a group is joined. Sta = CC(C)C[C@H](N)[C@@H](O)CC(=O)O; Isovaleryl = CC(C)CC(=O)*
# What was measured:
# [1] = target: T1, pro-heparanase (H60) (Homo sapiens, UniProt Q9Y251, K307R); test: Pro-heparanase activation in a cell-based assay (293 cells, DMB assay); settings: inhibition of pro-heparanase activation (H60); Table 15
# T1 sequence (Q9Y251 36-543 K307R): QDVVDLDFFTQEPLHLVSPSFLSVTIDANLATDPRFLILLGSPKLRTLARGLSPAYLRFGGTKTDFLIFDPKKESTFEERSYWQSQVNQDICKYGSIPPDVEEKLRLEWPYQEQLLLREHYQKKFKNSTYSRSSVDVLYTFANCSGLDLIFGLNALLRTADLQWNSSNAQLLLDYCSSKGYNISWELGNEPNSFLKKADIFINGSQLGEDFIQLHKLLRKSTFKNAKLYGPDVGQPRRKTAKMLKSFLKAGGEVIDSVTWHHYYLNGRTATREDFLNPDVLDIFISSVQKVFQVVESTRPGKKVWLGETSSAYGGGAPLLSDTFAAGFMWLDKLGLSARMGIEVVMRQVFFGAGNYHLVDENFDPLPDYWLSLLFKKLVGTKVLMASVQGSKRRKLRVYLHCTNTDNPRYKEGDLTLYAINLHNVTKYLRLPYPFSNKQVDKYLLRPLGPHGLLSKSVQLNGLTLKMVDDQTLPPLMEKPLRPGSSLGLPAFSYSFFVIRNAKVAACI
# [2] = target: T2, β-FGF (Homo sapiens, UniProt P09038); test: Elisa assay for binding of β-FGF to heparin; settings: inhibition of β-FGF binding to heparin
# T2 construct: purchased Sigma F0291
# Method: Elisa assay for determination of binding of β-FGF to heparin—96 well microplates were coated overnight with Heparin-albumin (Lizard) and blocked with 1% BSA in PBS with 0.05% Tween and 0.01% thimerosal for 2 hrs. β-FGF was added to the plates at a concentration of 0.8 ng/ml and incubated for 45 min at 23-25° C. The amount of β-FGF bound to heparin was detected using anti-FGF monoclonal antibody (Sigma Cat. # F6162) at a concentration of 2.5 ng/ml and secondary antibodies Sheep anti-mouse IgG linked to horseradish peroxidase (1:3000). TMB (Pierce Cat. #34021) was used as a substrate for peroxidase.
# (§1) The plates were read at 450 nm with a reference wavelength of 630 nm using a VERSAmax plate reader. […] Percent inhibition was calculated as compared with the control reactions pre-incubated with 1% DMSO only.
# [3] = target: T3, heparanase (H53) (Homo sapiens, UniProt Q9Y251, K307R); test: Heparanase activity inhibition (H53), DMB assay; assay type: biochemical; settings: for IC50: heparanase activity inhibition (H53), NI = no inhibition
# T3 sequence (Q9Y251 158-543 K307R limits assumed): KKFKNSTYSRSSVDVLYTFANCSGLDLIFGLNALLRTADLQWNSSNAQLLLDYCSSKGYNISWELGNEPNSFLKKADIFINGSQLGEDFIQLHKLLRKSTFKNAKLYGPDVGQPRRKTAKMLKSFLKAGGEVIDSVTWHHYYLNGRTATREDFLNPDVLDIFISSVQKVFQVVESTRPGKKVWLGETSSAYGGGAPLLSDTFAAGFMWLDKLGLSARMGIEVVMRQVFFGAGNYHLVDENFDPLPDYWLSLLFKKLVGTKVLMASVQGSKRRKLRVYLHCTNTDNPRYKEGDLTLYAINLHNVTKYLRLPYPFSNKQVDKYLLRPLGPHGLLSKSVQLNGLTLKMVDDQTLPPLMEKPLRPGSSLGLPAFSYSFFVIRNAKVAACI
# T3 sequence (Q9Y251 36-109 limits assumed): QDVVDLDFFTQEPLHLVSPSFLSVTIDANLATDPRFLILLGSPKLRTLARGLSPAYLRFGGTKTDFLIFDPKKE
# Method: At the end of the incubation, the cells were lysed by three consecutive cycles of freezing and thawing in a −80° C. Freezer and a 37° C. shaker. Formation of active heparanase was detected by determination of heparanase activity in DMB assay as described in patent application U.S. Pat. No. 6,190,875B.
# [4] = target: T4, VEGF (Homo sapiens, UniProt P15692); test: Elisa assay for binding of VEGF to heparin; settings: inhibition of VEGF binding to heparin
# T4 sequence (P15692 27-191 isoform P15692-4): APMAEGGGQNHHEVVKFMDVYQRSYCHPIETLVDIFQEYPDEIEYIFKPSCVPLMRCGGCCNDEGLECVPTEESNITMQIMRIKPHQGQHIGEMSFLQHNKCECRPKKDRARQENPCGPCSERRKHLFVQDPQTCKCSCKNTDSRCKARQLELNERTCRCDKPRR
# Method: Elisa assay for determination of binding of VEGF to heparin—96 well microplates were coated overnight with Heparin-albumin (Lizard) and blocked with 1% BSA in PBS with 0.05% Tween and 0.01% thimerosal for 2 hrs. VEGF was added to the plates at a concentration of 2 ng/ml and incubated for 45 min. at 23-25° C. The amount of VEGF bound to heparin was detected using anti-VEGF monoclonal antibody (Sigma Cat. # V4758) at a concentration of 0.26 μg/ml and secondary antibodies Sheep anti-mouse IgG linked to horseradish peroxidase (1:2000). TMB (Pierce Cat. #34021) was used as a substrate for peroxidase.
# as §1
# [5] = system: HUVEC cells; test: Cord Formation Assay; assay type: cell-based; settings: Homo sapiens; HUVEC cells on matrigel, 24 h; read-out: Inhibition of cord formation IC50
# Method: (§2) Cord formation and cell migration assays were executed following explicit directives provided by the inventors of the present invention by the National Cancer Institute (Biological Testing Branch, Developmental Therapeutics Program, DCTD, NCI, Fairview Center, Suite 205, 1003 West 7th Street, Frederick, Md. 21701-8527).
# Cord Formation Assay—Matrigel (60 μl of 10 mg/ml; Collaborative Lab # 35423) was placed in each well of an ice-cold 96-well plate. The plate was incubated at room temperature for 15 minutes and then transferred to 37° C. for 30 minutes to permit matrigel polymerization. Concomitantly with plate coating, HUVEC cells were diluted in EGM-2 (Clonetic # CC3162) at a concentration of 2×10^5 cells/ml. Each test compound was prepared at a 2 fold higher concentration than desired (5 concentration levels) using the same medium. Cells (500 μl) and 2× drug (500 μl) were mixed and 200 μl of this suspension were placed in duplicates on the polymerized matrigel. Following 24 h incubation, triplicate pictures were taken for each concentration using a Bioquant Image Analysis system. Drug effect (IC50) was assessed by comparing to untreated controls and measuring the length of cords formed and number of junctions.
# [6] = system: HUVEC cell; test: Cell Migration Assay (Boyden chamber); assay type: cell-based; settings: Homo sapiens, HUVEC cells, 5 h, read-out: Inhibition of chemotaxis IC50
# Method: as §2
# Cell Migration Assay—Migration was assessed using a 48-well Boyden chamber including 8 μm pore size collagen-coated (10 μg/ml rat tail collagen; Collaborative Laboratories) polycarbonate filters (Osmonics, Inc.). The bottom chamber wells included 27-29 μl of DMEM medium alone (baseline) or medium containing chemo-attractant (bFGF, VEGF or Swiss 3T3 cell conditioned medium). The top chambers included 45 μl of HUVEC cell suspension (1×10^6 cells/ml) prepared in DMEM+1% BSA with or without the test compound. Followinf 5 h of incubation at 37° C., the membrane was rinsed with PBS, fixed and stained in Diff-Quick solutions. The filter was placed on a glass slide with the migrated cells facing down and cells on top were removed using a Kimwipe. The testing was performed in 4-6 replicates where five fields were counted from each well. Negative unstimulated control values were subtracted from stimulated control and drug treated values. Data wad plotted as mean migrated cell±S.D. IC50 was calculated from the plotted data.
# [7] = target: T1, pro-heparanase (H60); test: Processing and activation of pro-heparanase in vitro with cathepsin B and D in the presence of heparin (Western blot, DMB assay); assay type: biochemical; settings: cathepsin B and/or cathepsin D
# Method: Western blot analysis—Western blot analysis was performed using rabbit anti-heparanase polyclonal antibodies as described in U.S. Pat. Nos. 6,177,545; 6,531,129; and 6,562,950.
# Following a 17 hours incubation at room temperature, reaction products were filtered to a new plate and quantified using di-methyl-methylene-blue, as described in U.S. Pat. No. 6,190,875.
# Assay mixtures contained heparin (Sigma, H3393) or heparinomimetic molecules ethane-1,2-disulfonic acid (Sigma, E2269) and heparin disaccharide IVA (Sigma, H0895) for western blot analysis or heparin sepharose beads for activation assays, in 200 mM acetate buffer, pH 5.5, 4 mM EDTA and 8 mM DTT, with either Cathepsin B, Cathepsin D or both. Following a 17 hours of incubation at room temperature, reaction products were examined by western blot analysis or filtered to a new plate and quantified using di-methyl-methylene-blue, as described in U.S. Pat. No. 6,190,875 for activation assay.
# [8] = system: 293 cell extract; test: Cleavage of Z-Pro-Lys-Lys-Glu-AMC (Peptide 1) by 293 cell extract and its inhibition by protease inhibitors; assay type: biochemical, human; set-up: % Inhibition: concentration or dose not given beside the values; settings: inhibition of Z-Pro-Lys-Lys-Glu-AMC cleavage by 293 cell extract
# Method: Following a 20 minutes incubation at 37° C., fluorescence released due to proteolytic activity was determined using a BMG POLARstar™ Galaxy fluorometer: excitation at 390 nm and emission at 460 nm.
# [9] = target: T5, Heparanase (Homo sapiens, UniProt Q9Y251, K307R); test: Dimerization assay (H53 hetero-dimer formation, di-methyl-methylene-blue); assay type: biochemical
# T5 sequence (Q9Y251 158-543 K307R limits assumed): T3 sequence (Q9Y251 158-543 K307R limits assumed)
# T5 sequence (Q9Y251 36-109 limits assumed): T3 sequence (Q9Y251 36-109 limits assumed)
# Source text: Dimerization assay—Activation assay using di-methyl-methylene-blue was effected as described in U.S. Pat. No. 6,190,875.
# [10] = target: T1, pro-heparanase (H60); test: Circular dichroism spectrometry of pro-heparanase
# Method: Circular Dichroism spectrometry—Circular Dichroism spectra were recorded using a JASCO 500 spetropolarimeter. Far Ultraviolet measurements (260-200 nm) were performed in a 0.1 mm demountable cuvette at 25° C., scanning at a rate of 10 nm/min. Pro-heparanase was assayed at a concentration of 0.72 mg/ml in 20 mM sodium phosphate buffer pH 6.8 supplemented with 300 mM NaCl. Effect of heparin on pro-heparanase spectra was determined at a concentration of 100 μM, and the inhibitor was added at a concentration of 15 μM. Base-line recordings were performed in the presence and absence of heparin to correct the pro-heparanase spectra.
# [11] = inhibition of H53 hetero-dimer formation by H8-derived peptides, read-out: IC50 H53
# T2 sequence (P09038 143-288): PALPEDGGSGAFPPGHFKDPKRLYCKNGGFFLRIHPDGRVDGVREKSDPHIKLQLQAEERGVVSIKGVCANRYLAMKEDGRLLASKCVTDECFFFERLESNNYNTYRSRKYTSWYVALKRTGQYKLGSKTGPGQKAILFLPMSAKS
compound,measurement,setting,value
O=C(O)CCCN1C(=O)C(=Cc2ccc(-c3cccc([N+](=O)[O-])c3)o2)SC1=S [Compound 4],IC50,[1],0.16 µM
same,IC50,[2],53.4 µM
same,heparanase activity inhibition (H53) in addition to inhibition of pro-heparanase activation,[3],dual activity
same,IC50,[3],3 µM
same,IC50,[4],17.8 µM
O=C(O)CCCN1C(=O)C(=Cc2ccc(-c3ccc(Cl)cc3)o2)SC1=S [Compound 6],IC50,[1],0.87 µM
same,IC50,[2],23.9 µM
same,IC50,[5],3.2 µM
same,heparanase activity inhibition (H53) in addition to inhibition of pro-heparanase activation,[3],dual activity
same,IC50,[3],36 µM
same,IC50,[6],4 µM
same,IC50,[4],17.8 µM
COCCCN1C(=O)C(=Cc2ccc(-c3ccc(Cl)cc3)o2)SC1=S [Compound 58],IC50,[1],0.92 µM
same,IC50,[2],0.2 µM
same,IC50,[4],0.2 µM
O=C1/C(=C\c2ccc(-c3ccccc3Cl)o2)SC(=S)N1C1CCS(=O)(=O)C1 (centres unmarked) [Compound 59],IC50,[1],0.24 µM
same,IC50,[2],0.4 µM
same,IC50,[5],0.4 µM
same,IC50,[6],0.25 µM
same,IC50,[4],0.4 µM
"O=S(=O)(O)CCS(=O)(=O)O [Compound E2269, ethane-1,2-disulfonic acid]",processing of pro-heparanase in vitro (Western blot),[7],allowed processing of the H60
CC(=O)N[C@H]1C(O)O[C@H](CO)[C@@H](O[C@@H]2OC(C(=O)O)=C[C@H](O)[C@H]2O)[C@@H]1O (some centres unmarked) [heparin disaccharide IVA],processing of pro-heparanase in vitro (Western blot),[7],allowed processing of the H60
CC(C)CC(=O)N[C@H](C(=O)N[C@H](C(=O)N[C@@H](CC(C)C)[C@@H](O)CC(=O)N[C@@H](C)C(=O)N[C@@H](CC(C)C)[C@@H](O)CC(=O)O)C(C)C)C(C)C [pepstatin] (Isovaleryl-VV[Sta]A[Sta]-OH),% Inhibition,[8],0%
same,processing of pro-heparanase in vitro (Western blot),[7],No processing occurred
same,activation of pro-heparanase in vitro (heparanase activity),[7]; heparin-sepharose,inhibited this activation
CPAYLRFGGTKTDFLIFDPLLE [Pep-7],IC50,[9]; [11],7 µM
CTWHHYYLNGRTATR [Pep-25],IC50,"[9]; H45-derived peptide, inhibition of H53 hetero-dimer formation, read-out: IC50 Heparanase",21 µM
DPRFLILL [Compound P8-16],IC50,[9]; [11],6 µM
FLILLGSPKLRTL [Compound P8-8],IC50,[9]; [11],8 µM
LRTLARGLSPAYL [Compound P8-5],IC50,[9]; [11],18 µM
PRFLILL [Compound P8-11],IC50,[9]; [11],1.4 µM
PRFLILLGSPKLR [Compound P8-4],IC50,[9]; [11],2.3 µM
RFLILL [Compound P8-18],IC50,[9]; [11],5 µM
heparin [reference compound],processing of pro-heparanase in vitro (Western blot),[7],heparanase was processed by cathepsin D
same,conformational change in pro-heparanase,[10],significant conformational change
